Tests used:
[1] = Solubility in water; type: physicochemical; conditions: hydrochloride
[2] = system: sensitive strains of P. falciparum; test: IC50 vis-à-vis sensitive strains of P. falciparum; type: cell-based; conditions: Plasmodium falciparum
[3] = system: Plasmodium berghei; test: Peters test on mice infected by Plasmodium berghei; type: in vivo; conditions: after 20 days; daily dose of 50 mg/Kg for 4 days
[4] = system: resistant (W2) strains of P. falciparum; test: IC50 vis-à-vis resistant (W2) strains of P. falciparum; type: cell-based; conditions: Plasmodium falciparum

| Compound | solubility [1] [mg/mL] | IC50 [2] [nM] | survival of mice in the Peters test [3] | IC50 [4] [nM] |
| --- | --- | --- | --- | --- |
| C[C@@H]1CC[C@H]2C(CN3CCOCC3)=C(C(F)(F)F)O[C@@H]3OC4(C)CC[C@@H]1[C@]32OO4 | > 20 |  |  |  |
| C[C@@H]1CC[C@H]2C(CN3CCN(CCO)CC3)=C(C(F)(F)F)O[C@@H]3OC4(C)CC[C@@H]1[C@]32OO4 |  | 17 | all the mice survive | 3 |
| C[C@@H]1CC[C@H]2C(CN3CCN(CCO)CC3)=C(C(F)(F)F)O[C@@H]3OC4(C)CC[C@@H]1[C@]32OO4 [drawing 28] | > 50 |  |  |  |
